# Laboratory results reported in US20250144067A1, “PERSONALIZED STARVATION THERAPY FOR CANCER” (Faeth Therapeutics, Inc., priority 2021, published 2025).
# Where a name gives a salt, the structure may show the parent alone. Read-outs that look alike come from different tables or passages of the source. Numbered stars: 1 amine (or outer) side, 2 acyl side, 3 side chain; on linkers, the order of the positions; unused ones are H or OH. Bridge positions count the residues as written; N and C are the ends. Peptide text beside a SMILES is read from it. X2 = O=C(CCC[*:2])[*:1]
# Tests used:
# [1] = test system: NCI-H292 lung cancer cells; test: FDA drug screening, complete media vs cholesterol-free media without statin (TABLE 1); type: cell-based, human
# [2] = test system: NCI-H292 lung cancer cells; test: FDA drug screening, complete media vs cholesterol-free media with simvastatin (TABLE 2); type: cell-based, human
# [3] = NCI-H292 cells, cholesterol-free media without statin, FDA drug library screen
# [4] = NCI-H292 cells, complete media, FDA drug library screen
# [5] = complete vs cholesterol-free media, >0 enhanced anti-cancer activity, about 0 neutral, <0 antagonist
# [6] = NCI-H292 cells, cholesterol-free media with simvastatin 0.04 μM, FDA drug library screen (TABLE 2)
# [7] = NCI-H292 cells, complete media, FDA drug library screen (TABLE 2)
# [8] = complete media minus cholesterol-free media + simvastatin (0.04 μM), >0 enhanced anti-cancer activity, about 0 neutral, <0 antagonist
# [9] = Complete minus Cholesterol-free, greater than 0 enhanced anti-cancer activity, about 0 neutral, below 0 antagonists
# [10] = NCI-H292 cells in cholesterol-free media without statin
# [11] = NCI-H292 cells, cholesterol-free media with simvastatin 0.04 μM, cell growth value in FDA drug screen
# [12] = complete media minus cholesterol-free media + simvastatin, >0 enhanced anti-cancer activity, about 0 neutral, <0 antagonist
# [13] = NCI-H292 cells, cholesterol-free media without statin
# [14] = NCI-H292 cells, FDA drug library screen, cholesterol-free media with simvastatin 0.04 μM
# [15] = NCI-H292 cells, FDA drug library screen, complete media
# [16] = Complete minus Cholesterol-free, >0 enhanced anti-cancer activity, about 0 neutral, <0 antagonist
# [17] = complete media vs cholesterol-free media + simvastatin (0.04 μM), >0 enhanced anti-cancer activity, about 0 neutral, <0 antagonist
# [18] = Complete minus Cholesterol-free, greater than 0 enhanced anti-cancer activity, about 0 neutral, below 0 antagonist
# [19] = NCI-H292 cells, FDA drug library screen, cholesterol-free media without statin
# [20] = NCI-H292 cells, complete media, cell growth value in FDA drug screen
# [21] = NCI-H292 cells, drug in cholesterol-free media with simvastatin 0.04 μM
# [22] = NCI-H292 cells, drug in complete media
compound,measurement,setting,value
OCC(O)CO [Glycerol],Cholesterol-free,[1]; [3],0.984
same,Complete,[1]; [4],1.096
same,Difference,[1]; [5],0.11
same,Cholesterol-free media + simvastatin (0.04 μM),[2]; [6],1.066
same,Complete Media,[2]; [7],1.039
same,Difference,[2]; [8],−0.03
Clemastine (fumarate),Difference,[1]; [9],−0.61
same,Cholesterol-free,[1]; [10],1.716
same,Cholesterol-free media + simvastatin (0.04 μM),[2]; [11],0.8829
same,Difference,[2]; [12],0.12
O=C(Nc1ccc([N+](=O)[O-])cc1Cl)c1cc(Cl)ccc1O [Niclosamide],Cholesterol-free,[1]; [13],0.9593
same,Complete,"[1]; NCI-H292 cells, complete media",0.6271
same,Difference,"[1]; complete vs cholesterol-free media, greater than 0 enhanced anti-cancer activity, about 0 neutral, below 0 antagonists",−0.33
same,Cholesterol-free media + simvastatin (0.04 μM),[2]; [14],0.365
same,Complete Media,[2]; [15],1.031
same,Difference,[2]; [12],0.67
NC(=NCc1ccccc1)NC(=O)c1nc(Cl)c(N)nc1N [Benzamil (hydrochloride)],Difference,[1]; [16],−0.30
same,Cholesterol-free,[1]; [13],0.9643
same,Complete,"[1]; NCI-H292 cells, complete media",0.6686
same,Cholesterol-free media + simvastatin (0.04 μM),[2]; [6],0.8193
same,Complete Media,[2]; [7],0.8118
same,Difference,[2]; [8],−0.01
CN(C)c1cc(NC(=O)CNC(C)(C)C)c(O)c2c1C[C@H]1C[C@H]3[C@H](N(C)C)C(O)=C(C(N)=O)C(=O)[C@@]3(O)C(O)=C1C2=O [Tigecycline (tetramesylate)],Difference,[1]; [16],0.02
same,Cholesterol-free,[1]; [3],0.1191
same,Complete,[1]; [4],0.1424
same,Cholesterol-free media + simvastatin (0.04 μM),[2]; [14],0.4075
same,Complete Media,[2]; [15],0.333
same,Difference,[2]; [17],−0.07
C[S+](C)CCC(N)C(=O)O.[Cl-] (racemic) [DL-Methionine methylsulfonium (chloride)],Difference,[1]; [18],−0.16
same,Cholesterol-free,[1]; [19],1.102
same,Complete,[1]; [15],0.9454
same,Cholesterol-free media + simvastatin (0.04 μM),"[2]; NCI-H292 cells, FDA library drug in cholesterol-free media with simvastatin 0.04 μM",1.182
same,Complete Media,"[2]; NCI-H292 cells, FDA library drug in complete media",0.8884
same,Difference,[2]; [17],−0.29
Cc1c(NC(=O)c2cccnc2)c(=O)n(-c2ccccc2)n1C [Nifenazone],Difference,[1]; [9],−0.66
same,Cholesterol-free,[1]; [10],1.466
same,Complete,[1]; NCI-H292 cells in complete media,0.8088
same,Cholesterol-free media + simvastatin (0.04 μM),[2]; [11],0.9965
same,Complete Media,[2]; [20],1.032
same,Difference,[2]; [12],0.04
CC[C@H](C)[C@@H]1NC(=O)[C@H](Cc2ccc(OC)cc2)NC(=O)CCCSC[C@@H](C(=O)N2CCC[C@H]2C(=O)N[C@@H](CC(C)C)C(=O)NCC(N)=O)NC(=O)[C@H](CC(N)=O)NC(=O)[C@H](CCC(N)=O)NC1=O [Carbetocin] (Y(Me)IQNCPLG-NH2; linker N-5 via X2),Difference,"[1]; Complete minus Cholesterol-free, […]",−0.26
same,Cholesterol-free,[1]; [13],1.283
same,Complete,"[1]; NCI-H292 cells, complete media",1.021
same,Cholesterol-free media + simvastatin (0.04 μM),[2]; [14],1.6
same,Complete Media,[2]; [15],1.76
same,Difference,"[2]; complete media minus cholesterol-free media + simvastatin, […]",0.16
Cc1nnc(C(=O)NC(C)(C)c2nc(C(=O)NCc3ccc(F)cc3)c(O)c(=O)n2C)o1 [Raltegravir],Cholesterol-free,[1],1.135
same,Complete,[1],0.9505
same,Difference,[1],−0.18
same,Cholesterol-free media + simvastatin (0.04 μM),[2],1.209
same,Complete Media,[2],1.119
same,Difference,[2],−0.09
O=C(Nc1cnn2ccc(N3CCC[C@@H]3c3cc(F)ccc3F)nc12)N1CC[C@H](O)C1 [Larotrectinib sulfate],Cholesterol-free,[1]; [3],1.525
same,Complete,[1]; [4],1.739
same,Difference,[1]; [5],0.21
same,Cholesterol-free media + simvastatin (0.04 μM),[2]; [21],1.922
same,Complete Media,[2]; [22],1.699
same,Difference,[2]; [17],−0.22
N[C@@H](C(=O)N[C@@H]1C(=O)N2C(C(=O)O)=C(Cl)CS[C@H]12)c1ccccc1 [Cefaclor],Difference,[1]; [18],−0.11
same,Cholesterol-free,[1]; [19],1.02
same,Complete,[1]; [15],0.9111
same,Cholesterol-free media + simvastatin (0.04 μM),[2]; [11],1.593
same,Complete Media,[2]; [20],1.696
same,Difference,[2]; [12],0.10
COc1cc2c(cc1OC)[C@@H]1Cc3ccc(OC)c(OC)c3CN1CC2 [Tetrahydropalmatine],Difference,[1]; [18],−0.19
same,Cholesterol-free,[1]; [19],1.084
same,Complete,[1]; [15],0.8984
same,Cholesterol-free media + simvastatin (0.04 μM),[2]; [21],0.9937
same,Complete Media,[2]; [22],0.7686
same,Difference,[2]; [17],−0.23
Cn1c(=O)c2c(ncn2CCO)n(C)c1=O [Etofylline],Cholesterol-free,[1]; [3],1.261
same,Complete,[1]; [4],1.355
same,Difference,[1]; [5],0.09
same,Cholesterol-free media + simvastatin (0.04 μM),[2]; [14],0.885
same,Complete Media,[2]; [15],1.042
same,Difference,[2]; [12],0.16
